Assay results published in patent US10829796B2, “Bacteria identification and antimicrobial susceptibility test” (priority 2015, dated 2020).

Tested on: bacteria in clinical bovine mastitis milk samples
Assay: Combined bacteria identification and antimicrobial susceptibility test (colour of wells, MIC) on clinical bovine mastitis milk samples
Assay type: cell-based
Description: Clinical bovine mastitis milk samples were collected by a vet clinic in South Island, New Zealand. Samples were stored in the freezer for several months and shipped frozen to the testing facility. In this Example, the term “clinical” means that dairy cows had clinical symptoms of an udder infection e.g. cow behaved unusual, milk clots, swollen udder among other typical symptoms. Testing was executed in microwell plate comprising of 24 wells (3×8 wells).
In addition, 20 ul of clinical mastitis sample was added to each well with a laboratory pipette.
(§1) Abbreviations • 1. 80 ul GC+10 ul Tell: 80 ul Giolitti Cantoni base broth+10 ul Tellurite solution (1%); • 2. 80 ul TSB/Esc/Fer Cit: 80 ul Tryptic soy broth containing 0.25% Esculin and 0.125% Ammonium Ferric Citrate; • 3. 80 ul TSB/Esc/Fer Cit+10 ul Genta: 80 ul Tryptic soy broth containing 0.25% Esculin and 0.125% Ammonium Ferric Citrate+10 ul of Gentamycin solution 10 mg/ml; • 4. 80 ul McC/PR25: 80 ul MacConkey broth (single strength) containing 0.0125% phenol red; and • 5. 80 ul TSB/PR25: 80 ul Tryptic soy broth containing 0.0125% phenol red. Bacteria Identification
Columns A to C and rows 1 and 2 were used for bacteria identification. A1: coagulase positive Staph; A2: Staphylococci; B1: Strep group D; B2: Strep group D; C1: general enrichment media (gram+ and gram-bacteria); C2: coliform bacteria.
Column A3 to A8: serial dilution of benzyl penicillin as potassium. Column B3 to B8: serial dilution of ceftiofur as hydrochloride. Column C3 to C8: serial dilution of cloxacillin as sodium. Antibiotic concentrations are listed as free form ranging between 4 ug/ml to 0.05 ug/ml.
Minimum inhibitory substance concentration (MIC) is here defined as the concentration if a colour change occurs between two wells (one well remains red with drug concentration 1, the other one yellow with drug concentration 2, whereas drug concentration 1 is larger than drug concentration 2) then the MIC is the value of drug concentration 1.
Table 21 indicates the microwell plate configuration #1; Drugs: Benzylpenicillin as potassium; Cloxacillin as sodium; Ceftiofur as hydrochloride; Drug concentration in each well (A3 to C8) is based on 80 μl composition+10 μl drug solution+20 μl clinical mastitis milk sample and equivalent to listed drug concentration in μg/ml; 20 ul of clinical bovine mastitis milk sample was added to each well (A1 to C8).
In addition, each well received one drop of clinical sample from a transfer pipette which was on average about 35 mg. This was determined through weighing the well plate prior and after the addition of clinical mastitis samples. This weight was then divided by 24.
as §1, with “•” for “Abbreviations •”, “red.” for “red. Bacteria Identification”
Columns A to C and rows 1 and 2 were used for bacteria identification. A1: coagulase positive Staph; A2: Staphylococci; B1: Strep Group D; B2: -; C1: general enrichment media (gram+ and gram-); C2: coliform bacteria.
Column A3 to A8: serial dilution of benzyl penicillin as potassium. Drug concentrations given as free form ranging between 4 ug/ml to 0.05 ug/ml. Column B3 to B8: serial dilution of ceftiofur as hydrochloride. Drug concentrations given as free form ranging between 4 ug/ml to 0.05 ug/ml. Column C3 to C8: serial dilution of cloxacillin as sodium. Drug concentrations given as free form ranging between 4 ug/ml to 0.05 ug/ml.

Cc1onc(-c2ccccc2Cl)c1C(=O)N[C@@H]1C(=O)N2[C@@H]1SC(C)(C)[C@@H]2C(=O)O [cloxacillin] was tested, and the “Colour of media in each well” value (ID 1, T = 22 h, 37° C., plate configuration #1, drug 0.05 μg/ml) was “yellow”, the “Colour of media in each well” value (ID 1, T = 22 h, 37° C., plate configuration #1, drug 0.1 μg/ml) was “yellow” and the “Colour of media in each well” value (ID 1, T = 22 h, 37° C., plate configuration #1, drug 0.5 μg/ml) was “red”. The “Colour of media in each well” value (ID 1, T = 22 h, 37° C., plate configuration #1, drug 1 μg/ml) was “red”, the “Colour of media in each well” value (ID 1, T = 22 h, 37° C., plate configuration #1, drug 2 μg/ml) was “red” and the “Colour of media in each well” value (ID 1, T = 22 h, 37° C., plate configuration #1, drug 4 μg/ml) was “red”. For the same molecule, the “Colour of media in each well” value (ID 2, T = 48 h, 37° C., plate configuration #1, drug 0.05 μg/ml) was “yellow”, the “Colour of media in each well” value (ID 2, T = 48 h, 37° C., plate configuration #1, drug 0.1 μg/ml) was “yellow” and the “Colour of media in each well” value (ID 2, T = 48 h, 37° C., plate configuration #1, drug 0.5 μg/ml) was “red”. The “Colour of media in each well” value (ID 2, T = 48 h, 37° C., plate configuration #1, drug 1 μg/ml) was “red”, the “Colour of media in each well” value (ID 2, T = 48 h, 37° C., plate configuration #1, drug 2 μg/ml) was “red” and the “Colour of media in each well” value (ID 2, T = 48 h, 37° C., plate configuration #1, drug 4 μg/ml) was “red”. The “Colour of media in each well” value (ID 3, T = 22 h, 37° C., plate configuration #1, drug 0.05 μg/ml) was “yellow”, the “Colour of media in each well” value (ID 3, T = 22 h, 37° C., plate configuration #1, drug 0.1 μg/ml) was “yellow” and the “Colour of media in each well” value (ID 3, T = 22 h, 37° C., plate configuration #1, drug 0.5 μg/ml) was “red”. The “Colour of media in each well” value (ID 3, T = 22 h, 37° C., plate configuration #1, drug 1 μg/ml) was “red”, the “Colour of media in each well” value (ID 3, T = 22 h, 37° C., plate configuration #1, drug 2 μg/ml) was “yellow” and the “Colour of media in each well” value (ID 3, T = 22 h, 37° C., plate configuration #1, drug 4 μg/ml) was “yellow”. The “Colour of media in each well” value (ID 3, T = 23 h, 37° C., Table 34, drug 0.05 μg/ml) was “yellow”, the “Colour of media in each well” value (ID 3, T = 23 h, 37° C., Table 34, drug 0.1 μg/ml) was “yellow” and the “Colour of media in each well” value (ID 3, T = 23 h, 37° C., Table 34, drug 0.5 μg/ml) was “red”. The “Colour of media in each well” value (ID 3, T = 23 h, 37° C., Table 34, drug 1 μg/ml) was “red”, the “Colour of media in each well” value (ID 3, T = 23 h, 37° C., Table 34, drug 2 μg/ml) was “yellow” and the “Colour of media in each well” value (ID 3, T = 23 h, 37° C., Table 34, drug 4 μg/ml) was “yellow”. The “Colour of media in each well” value (ID 3, T~7 h, 37° C., Table 34, drug 0.05 μg/ml) was “red”, the “Colour of media in each well” value (ID 3, T~7 h, 37° C., Table 34, drug 0.1 μg/ml) was “red” and the “Colour of media in each well” value (ID 3, T~7 h, 37° C., Table 34, drug 0.5 μg/ml) was “red”. For the same molecule, the “Colour of media in each well” value (ID 3, T~7 h, 37° C., Table 34, drug 1 μg/ml) was “red”, the “Colour of media in each well” value (ID 3, T~7 h, 37° C., Table 34, drug 2 μg/ml) was “red” and the “Colour of media in each well” value (ID 3, T~7 h, 37° C., Table 34, drug 4 μg/ml) was “red”. The “Colour of media in each well” value (ID 3, T~11 h, 37° C., Table 34, drug 0.05 μg/ml) was “red”, the “Colour of media in each well” value (ID 3, T~11 h, 37° C., Table 34, drug 0.1 μg/ml) was “red” and the “Colour of media in each well” value (ID 3, T~11 h, 37° C., Table 34, drug 0.5 μg/ml) was “red”. For the same molecule, the “Colour of media in each well” value (ID 3, T~11 h, 37° C., Table 34, drug 1 μg/ml) was “red”, the “Colour of media in each well” value (ID 3, T~11 h, 37° C., Table 34, drug 2 μg/ml) was “red” and the “Colour of media in each well” value (ID 3, T~11 h, 37° C., Table 34, drug 4 μg/ml) was “red”. For the same molecule, the “Colour of media in each well” value (ID 4, T = 22 h, 37° C., plate configuration #1, drug 0.05 μg/ml) was “yellow”, the “Colour of media in each well” value (ID 4, T = 22 h, 37° C., plate configuration #1, drug 0.1 μg/ml) was “yellow” and the “Colour of media in each well” value (ID 4, T = 22 h, 37° C., plate configuration #1, drug 0.5 μg/ml) was “red”. For the same molecule, the “Colour of media in each well” value (ID 4, T = 22 h, 37° C., plate configuration #1, drug 1 μg/ml) was “red”, the “Colour of media in each well” value (ID 4, T = 22 h, 37° C., plate configuration #1, drug 2 μg/ml) was “red” and the “Colour of media in each well” value (ID 4, T = 22 h, 37° C., plate configuration #1, drug 4 μg/ml) was “red”. The “Colour of media in each well” value (ID 5, T = 23 h, 37° C., plate configuration #2, drug 0.05 μg/ml) was “yellow”, the “Colour of media in each well” value (ID 5, T = 23 h, 37° C., plate configuration #2, drug 0.1 μg/ml) was “yellow” and the “Colour of media in each well” value (ID 5, T = 23 h, 37° C., plate configuration #2, drug 0.5 μg/ml) was “red”. For the same molecule, the “Colour of media in each well” value (ID 5, T = 23 h, 37° C., plate configuration #2, drug 1 μg/ml) was “red”, the “Colour of media in each well” value (ID 5, T = 23 h, 37° C., plate configuration #2, drug 2 μg/ml) was “red” and the “Colour of media in each well” value (ID 5, T = 23 h, 37° C., plate configuration #2, drug 4 μg/ml) was “red”. For the same molecule, the “Colour of media in each well” value (ID 5 to 8, T = 0 h (prior incubation, reference), plate configuration #2, drug 0.05 μg/ml) was “red”, the “Colour of media in each well” value (ID 5 to 8, T = 0 h (prior incubation, reference), plate configuration #2, drug 0.1 μg/ml) was “red” and the “Colour of media in each well” value (ID 5 to 8, T = 0 h (prior incubation, reference), plate configuration #2, drug 0.5 μg/ml) was “red”.
